Test results from patent publication US10173999B2, “Cyclic amine derivative and pharmaceutical use thereof” (Toray Industries, Inc., priority 2015, dated 2019).
“Also recorded” adds a separate entry of the source. Where a name gives a salt, the structure may show the parent alone.

What was measured:
[1] = tested on: Canine aortic smooth muscle cells; experiment: Inducibility of cytoplasmic vacuolation in canine aortic smooth muscle cells; type: cell-based; parameters: key: Present: The term “present” in the tables means that cytoplasmic vacuolation was observed; Absent: the term “absent” means that cytoplasmic vacuolation was not observed; conditions: Concentration: 1.0 mmol/L, Treatment time: 24 hours
Method: (§1) As a test compound, the compound of Example 3, 9, 11, 12 or compounds of Comparative Examples 2 to 6 were used. Canine aortic smooth muscle cells (Canine Aortic Smooth Muscle Cells, supply source: Toyobo Co., Ltd.) or human aortic smooth muscle cells of (T/G HA-VSMG, supply source: ATCC) were treated with a test compound (1.0 or 1.2 mmol/L in concentration) for 24 hours or 2 weeks. The cells were stained with HE, immunohistochemically for LAMP-2 or toluidine blue, and thereafter the presence or absence of cytoplasmic vacuolation was determined by using an optical microscope.

[2] = tested on: mouse partial sciatic nerve ligation model (neuropathic pain); experiment: Mouse partial sciatic nerve ligation model (Seltzer model), von Frey test; type: in vivo; conditions: Comparative Example 7: oral, 7 days after ligation, 1-3 h after dosing; 0.01-1 mg/kg (Comp Ex 1), 10 mg/kg (Comp Ex 3-6, pregabalin); vs ligation+distilled water; t-test corrected by Dunnett
[3] = tested on: mouse partial sciatic nerve ligation model (neuropathic pain); experiment: as above; type: in vivo; conditions: oral administration, von Frey test at 1, 2, 3 h
Method: The mouse partial sciatic nerve ligation model was prepared in accordance with the method of Seltzer et al. (Malmberg et al., Pain, vol. 76, p. 215-222, 1998).
Slc: ICR mice (5 weeks old, male; from Japan SLC, Inc.) or Cr1: CD1 (ICR) mice (5 weeks old, male; from CHARLES RIVER LABORATORIES JAPAN, INC.) were anesthetized with sodium pentobarbital (70 mg/kg, intraperitoneal administration). The sciatic nerve at the femoral region of the right hind paw of each mouse was exposed and triply ligated tightly with silk suture of 8-0 (from NATSUME SEISAKUSHO CO., LTD.) under a stereomicroscope so that only half thickness of the nerve was trapped in the ligature. A group of mice thus treated was designated as a partial sciatic nerve ligation group. A group of mice whose sciatic nerve was just exposed and not ligated was designated as a sham surgery group.
Evaluation of neuropathic pain (hereinafter referred to as von Frey test) was performed as follows. Mice were conditioned for at least one hour in an acrylic cage for measurement (from NATSUME SEISAKUSHO CO. LTD. or SHINANO SEISAKUSHO) placed on a wire net. Thereafter, using a filament (from North Coast Medical or neuroscience) which exerted a pressure of 0.16 g, the mice were subjected to mechanical tactile stimulus by applying the filament to the plantar surface of the right hind paw 3 times, each for 3 seconds, with an interval of 3 seconds.
Seven days after the sciatic nerve ligation surgery, the compound of Example 1, 2, 3, 4, 5, 7, 8, 9, 10, 11, 12 or 13 (10 mg/kg for each of the compounds of Example 1, 2, 3, 4, 5, 8, 10 and 13, 0.01 to 1 mg/kg for the compound of Example 7, 0.01 to 10 mg/kg for the compound of Example 9; 0.001 to 0.1 mg/kg for the compound of Example 11; and 0.01 to 1 mg/kg for the compound of Example 12) or pregabalin as a positive control (10 mg/kg; Bosche Scientific) was dissolved in distilled water and orally administered to mice of the partial sciatic nerve ligation group. The groups of the mice in the partial sciatic nerve ligation mouse to which the compound of Example 1, 2, 3, 4, 5, 7, 8, 9, 10, 11, 12 or 13 was administered were designated as a “partial sciatic nerve ligation+the compound of Example 1” group; a “partial sciatic nerve ligation+the compound of Example 2” group; a “partial sciatic nerve ligation+the compound of Example 3” group; a “partial sciatic nerve ligation+the compound of Example 4” group; a “partial sciatic nerve ligation+the compound of Example 5” group; a “partial sciatic nerve ligation+the compound of Example 7” group; a “partial sciatic nerve ligation+the compound of Example 8” group; a “partial sciatic nerve ligation+the compound of Example 9” group; a “partial sciatic nerve ligation+the compound of Example 10” group; a “partial sciatic nerve ligation+the compound of Example 11” group; a “partial sciatic nerve ligation+the compound of Example 12” group; and a “partial sciatic nerve ligation+the compound of Example 13” group, respectively. The partial sciatic nerve ligation mouse group to which pregabalin was administered was designated as a “partial sciatic nerve ligation+pregabalin” group. A group wherein distilled water was orally administered to the mice of the partial sciatic nerve ligation group was designated as a “partial sciatic nerve ligation+distilled water” group. A group wherein distilled water was orally administered to the mice of the sham surgery group was designated as a “sham surgery+distilled water” group.
The von Frey test was carried out before oral administration of a test compound (pre-value), one hour, two hours, and three hours after the oral administration of a test compound.
Slc: ICR mice (5 weeks old, male; Japan SLC, Inc.) were anesthetized with sodium pentobarbital (70 mg/kg, intraperitoneal administration).

[4] = tested on: Cr1: CD (SD) rats; experiment: Evaluation of safety in rat, two-week oral administration test; type: in vivo; conditions: for findings in examination items: in vivo, po
Method: As a test compound, the compound of Example 11 or Comparative Example 2 was used. The compound of Example 11 or Comparative Example 2 was administered orally to Cr1: CD (SD) rats (7 weeks old, female and male; from Charles River Laboratories, Inc.), for 2 weeks. Clinical observation, body weight measurement, food intake measurement, ophthalmologic examination (the compound of Example 11, alone), hematological examination, blood chemistry examination, urinalysis, bone marrow examination, pathological anatomical examination, organ weight measurement, histopathological examination and immunotoxicity test were carried out. In addition, toxicokinetics (TK) measurement was carried out on Day 1 and Day 14 after administration. It was confirmed that each test compound was exposed. The administration dose of a test compound was specified as 0, 250, 500, 1000 mg/kg/day and administration volume was specified as 10 mL/kg. As an administration solvent, phosphate-buffered saline was used for the compound of Example 11 and distilled water was used for the compound of Comparative Example 2.

[5] = Pharmacokinetics (PK) test in cynomolgus monkeys; type: in vivo, cynomolgus monkey; conditions: male, plasma, cynomolgus monkey
Method: Cynomolgus monkeys (4 to 6 years old, male) were raised under the conditions of voluntary intake of solid food (Oriental Yeast Co., Ltd) and tap water and fasted from the evening of the day before initiation of administration and subjected to an experiment. Note that blood was sampled at 4 hours after administration (on and after 16:00), and thereafter feeding was restarted.
Dosing solution for intravenous administration was injected through the saphenous vein by use of a syringe needle (attached to a syringe barrel). The oral administration into the stomach was compulsively carried out by inserting a catheter into the nasal cavity.
The blood sampled was centrifuged at 4° C. and 1800×g for 15 minutes to obtain the plasma. The plasma thus obtained was stored at about −80° C. until use in preparation of analysis samples. The plasma obtained from a cynomolgus monkey to which a test compound was administrated, is referred to as a plasma sample; whereas the plasma obtained from a cynomolgus monkey to which a test compound was not administered, is referred to as the blank plasma.
(§2) The resulting solution was vortexed and cooled at 4° C. for 10 minutes. A sample for a calibration curve was prepared by adding a standard solution for a calibration curve to the blank plasma and subjecting the resulting mixture to the same treatment. After cooling, each of the samples was spun at 4° C. and 2000 rpm for 10 minutes by a centrifuge (Hitachi Koki Co., Ltd.). The resulting supernatant was used as a sample for LC/MS/MS analysis.
as §2, with “diluted 10 fold with 70 vol % acetonitrile containing 0.1 vol % formic acid and subjected” for “used”, “analysis. The LC/MS/MS analysis conditions were as follows:” for “analysis.”
The test-compound concentrations in the plasma at each sampling time point in the case of intravenous administration or oral administration were calculated and PK analysis was carried out for individual monkeys. PK parameters were calculated by using WinNonlin (Pharsight), in accordance with an analysis independent of a model (intravenous administration: Bolus IV Administration, oral administration: Extravascular Administration; Weight=1/y in both administrations). Furthermore, bioavailability (BA) was calculated based on the following Expression (3) by dividing AUC0-∞iv (time 0 to ∞) at the time of the intravenous administration and AUC0-∞po (time 0 to ∞) at the time of the oral administration by respective dose values to obtained as normalized values. Bioavailability (BA)=(AUC0-∞,po/dose)/(AUC0-∞,iv/dose) (3)

[6] = tested on: human aortic smooth muscle cells (T/G HA-VSMG); experiment: Inducibility of cytoplasmic vacuolation in human aortic smooth muscle cells; type: cell-based; conditions: Concentration: 1.0 mmol/L, Treatment time: 24 hours, sulfate monohydrate
Method: as §1

| Inducibility of cytoplasmic vacuolation [1] | Structure (SMILES) | analgesic action in von Frey test (total score) [2] | persistence of analgesic action [3] | time of strongest analgesic action after oral administration [3] | findings in examination items ([4]; 250 mg/kg/day) | findings in examination items ([4]; 500 mg/kg/day) | no observed adverse effect level ([4]; oral, 2 weeks) | bioavailability ([5]; 1 mg/kg oral vs 1 mg/kg intravenous, read-out: BA (bioavailability)) | clearance ([5]; intravenous administration 1 mg/kg, single, read-out: CLtot (total body clearance) (converted)) | AUC(0-inf) ([5]; oral administration 1 mg/kg, single) | Cmax ([5]; oral administration 1 mg/kg, single, read-out: Cmax (maximum plasma concentration)) | half-life ([5]; oral administration 1 mg/kg, single, read-out: t1/2 (elimination half-life in the plasma) (converted)) | Inducibility of cytoplasmic vacuolation [6] |
| --- | --- | --- | --- | --- | --- | --- | --- | --- | --- | --- | --- | --- | --- |
| Present | CCn1ccnc1CCC(=O)N1CCC(N(C)C)CC1 [Comparative Example 3, 1-(4-(dimethylamino)piperidin-1-yl)-3-(1-ethyl-1H-imidazol-2-yl)propan-1-one hydrochloride] | statistically significant analgesic action | tended to decrease 2 hours and 3 hours later | one | – | – | – | – | – | – | – | – | – |
| Present | CCCn1ccnc1CCC(=O)N1CCC(N(C)C)CC1 [Comparative Example 4, 1-(4-(dimethylamino)piperidin-1-yl)-3-(1-propyl-1H-imidazol-2-yl)propan-1-one hydrochloride] | statistically significant analgesic action | tended to decrease 2 hours and 3 hours later | one | – | – | – | – | – | – | – | – | – |
| Present | CCCCn1ccnc1CCC(=O)N1CCC(N(C)C)CC1 [Comparative Example 5, 1-(4-(dimethylamino)piperidin-1-yl)-3-(1-butyl-1H-imidazol-2-yl)propan-1-one hydrochloride] | statistically significant analgesic action | tended to decrease 2 hours and 3 hours later | one | – | – | – | – | – | – | – | – | – |

| Structure (SMILES) | Inducibility of cytoplasmic vacuolation [1] | analgesic action in von Frey test (total score) [2] | persistence of analgesic action [3] | time of strongest analgesic action after oral administration [3] | findings in examination items ([4]; 250 mg/kg/day) | findings in examination items ([4]; 500 mg/kg/day) | no observed adverse effect level ([4]; oral, 2 weeks) | bioavailability ([5]; 1 mg/kg oral vs 1 mg/kg intravenous, read-out: BA (bioavailability)) | clearance ([5]; intravenous administration 1 mg/kg, single, read-out: CLtot (total body clearance) (converted)) | AUC(0-inf) ([5]; oral administration 1 mg/kg, single) | Cmax ([5]; oral administration 1 mg/kg, single, read-out: Cmax (maximum plasma concentration)) | half-life ([5]; oral administration 1 mg/kg, single, read-out: t1/2 (elimination half-life in the plasma) (converted)) | Inducibility of cytoplasmic vacuolation [6] |
| --- | --- | --- | --- | --- | --- | --- | --- | --- | --- | --- | --- | --- | --- |
| CN(C)C1CCN(C(=O)CCc2nccn2C)CC1 [Comparative Example 2, 1-(4-(dimethylamino)piperidin-1-yl)-3-(1-methyl-1H-imidazol-2-yl)propan-1-one sulfate monohydrate] | Present | – | – | – | abnormality was not observed | vacuolation was observed in e.g., the media of blood vessels of submandibular gland | 250 mg/kg/day | 42.6% | 8.35 mL/min/kg | 849 ng·h/mL | 146 ng/mL | 6.56 h | has the inducibility of cytoplasmic vacuolation; also recorded: Present |
